According to patent publication US7737182B2, “Pharmaceuticals for xerosis” (Taisho Pharmaceutical Co., Ltd., priority 2001, dated 2010):

Key:
[1] = tested on: NC mice induced to manifest dermatitis; assay: Dermatitis score in dermatitis manifesting NC mouse models (Test Example 2); type: in vivo; details: 0.01% in 100% ethanol, 200 μl on dorsal back, seven times a week for 4 weeks
Method: By suitably modifying a method known to the skilled artisan (Jpn. J. Pharmacol. 76, 175-183 (1998) Jun Hiroi, et al. Effects of Tacrolimus Hydrate (FK-506) Ointment on Spontaneous Dermatitis in NC/Nga Mice), the following test was conducted in order to confirm the antipruritic effect of compounds of the invention.
Animals: Four-week old SPF NC mice (male) were purchased from Japan SLC; right after their arrival, the SPF NC mice were kept together with dermatitis manifesting male NC mice (older than 20 weeks) for 2 weeks under the following conditions so as to induce itch-evoked scratching behavior. […]
Drug administration: To the dorsal backs of the 20-wk NC mice that were induced to manifest dermatitis as the result of cohabitation with the spontaneous dermatitis manifesting NC mice, 100% ethanol, compound No. 7 (0.01%) dissolved in 100% ethanol or tacrolimus (0.1%) dissolved in 100% ethanol was applied from an Eppendorf pipette in 200-μl doses seven times a week for a period of 4 weeks. […] Dermatitis score: Dermatitic symptoms were observed and measured once a week. […]

prostaglandin D receptor = biological target: T1, prostaglandin D receptor (Homo sapiens, UniProt Q13258); assay: Antagonism by BW A868C of the suppression of ADP-induced human platelet aggregation; type: cell-based; details: final concentration 95.7 nmol/L, human PRP, ADP 3 μmol/L
T1 construct: separate the supernatant (PRP, or platelet-rich plasma); endogenous in cells; host or cells: human platelets (platelet-rich plasma from healthy male donors)
T1 sequence (Q13258 1-359): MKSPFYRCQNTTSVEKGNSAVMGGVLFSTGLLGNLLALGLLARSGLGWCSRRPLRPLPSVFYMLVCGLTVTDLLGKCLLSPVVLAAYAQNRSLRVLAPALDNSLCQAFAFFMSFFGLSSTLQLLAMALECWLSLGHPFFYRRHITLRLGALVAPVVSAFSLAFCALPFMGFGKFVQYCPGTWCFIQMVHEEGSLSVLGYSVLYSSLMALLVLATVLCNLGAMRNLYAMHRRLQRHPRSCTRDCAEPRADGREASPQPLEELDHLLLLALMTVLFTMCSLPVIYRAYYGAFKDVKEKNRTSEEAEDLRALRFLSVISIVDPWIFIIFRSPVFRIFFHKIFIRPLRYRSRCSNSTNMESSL
Method: The prostaglandin D receptor selective antagonist used in the test was ((+/−)-3-benzyl-5-(6-carboxyhexyl)-1-(2-cyclohexyl-2-hydroxyethylamino)-hydantoin) (hereunder designated BW A868C) (Sigma-Aldrich Japan K.K.)
BW A868C was diluted with ethanol to final concentrations of 0.03 μmol/L, 0.1 μmol/L, 0.3 μmol/L, 1 μmol/L, 3 μmol/L and 10 μmol/L.
Compound No. 7 and PGD2 were diluted with ethanol to 287 nmol/L and 300 nmol/L, respectively, for subsequent use.
Blood was taken from the cubital veins of human healthy males and sampled into a tube containing 3.13% sodium citrate. The blood sample was centrifuged at 1,000 rpm for 10 minutes at 20° C. to separate the supernatant (PRP, or platelet-rich plasma) and the residue was further centrifuged at 3,000 rpm for 10 minutes at 20° C. to separate the supernatant (PPP, or platelet-poor plasma). The platelet count of PRP was appropriately diluted with PPP to 30×10^4 platelets/μL for subsequent use.
Platelet aggregation was measured with a platelet aggregation measuring instrument (PAM-8C; MC MEDICAL Co., LTD.) by the Born method (Nature, vol. 194, p. 927, 1962). A portion (273 μL) of PRP (for the BW A868C groups, 1 μL of BW A868C was added at varying concentrations) was preincubated at 37° C. for 3 minutes with stirring at 1,000 rpm. After the preincubation, 1 μL of ethanol or a test substance (compound No. 7: final concentration at 95.7 nmol/L; PGD2: final concentration at 1000 nmol/L) was added and the mixture was incubated at 37° C. for 3 minutes with stirring at 1000 rpm. After the incubation, 25 μL of ADP (final concentration at 3 μmol/L) was added to induce platelet aggregation and a maximum percent aggregation for 5 minutes was measured.

BALB/c male mice = assay: Mouse skin's barrier function, treatment test, TEWL (Test Example 5); type: in vivo; details: barrier destroyed with acetone/diethyl ether; 0.01% in ethanol, 100 μL, once a day for 2 days
Method: Six-week-old BALB/c male mice in groups of eight were shaven in a rostral dorsolateral area of 4 cm^2 (2 cm×2 cm) with electric clippers and the shaven area was covered for 60 seconds with an absorbent cotton (2 cm×2 cm) impregnated with a 1:1 liquid mixture of acetone and diethyl ether. This treatment for destroying the skin's barrier function was performed for 3 consecutive days on once-a-day basis. Starting on the day next to completion of the treatment for barrier destruction at day 3, a solvent (ethanol, 100 μL) or a drug dissolved in the solvent (compound No. 7, PGD2, PGF2α, or PGE1, all being at 0.01% in an amount of 100 μL) was applied to the barrier destroyed site for 2 days on once-a-day basis. On the day next to the second application of the solvent or drug, the transepidermal water loss (TEWL) at the same site was measured with Tewameter (TM210 of Courage & Khazawa, Germany) to evaluate the drug's action.

Which results are given for `O=C(O)CSCCCC[C@@H]1[C@@H](C#C[C@@H](O)C2CCCCC2)[C@H](O)C[C@H]1Cl` [Compound No. 7]?
dermatitis score suppressing action compared to the vehicle group [1]: significant dermatitis score suppressing action; platelet aggregation suppressing action compared with control group (ethanol) (prostaglandin D receptor): significant platelet aggregation suppressing action; transepidermal water loss (TEWL) compared to the solvent-applied control group (BALB/c male mice): significant decrease in TEWL
